Several values for one entry are separate records, joined by “and”; a condition that tells them apart may be missing. Identical values can stand only once. Counter-ions that a name gives are not always drawn. Marks after values point to notes of the source that are not given here.
Experiments:
[1] = Hygroscopicity determination (vapor sorption, SGA-100); assay type: physicochemical; conditions: room temperature (25° C.)
Procedure: The weight change of a test sample at room temperature (25° C.) and at 80% relative humidity (RH) were investigated by recording adsorption-desorption isotherms using a symmetric vapor-sorption analyser SGA-100 (VTI Corporation) using different methods, the main features being: a single sorption/desorption cycle from 0 to 90% RH in 10% RH steps with a dm/dt trigger value of 0.002%, (dm/dt=change in mass with time—when the balance stability is within this value the next step is automatically started, however, if those conditions are not achieved there is a default maximum time for each step of 6 hours). Approximately 2 to 10 mg of the test sample was placed in a sample holder and exposed to different relative humidities.

[2] = Evaluation of the deaggregation properties of micronised salt (TSI Aerodynamic Particle Sizer); assay type: physicochemical
Procedure: This screening study was intended to give some estimation regarding the deaggregation properties of anhydrous N-{2-[((2S)-3-{[1-(4-chlorobenzyl)piperidin-4-yl]amino}-2-hydroxy-2-methylpropyl)oxy]-4-hydroxyphenyl}acetamide benzoate salt, form B (referred to in the remainder of this example as “Form B salt”. The results were compared to the results from an established product powder, the Pulmicort® Turbuhaler® formulation, which was tested identically.
Form B salt was micronised in order to obtain a particle size of less than […]. Pulmicort® Turbuhaler® powder was emptied from the Pulmicort® Turbuhaler®. The latter formulation consists of micronised Budesonide powder that is spheronised into small pellets. The micronization of the Form B salt was performed in a spiral jet mill. Within the inner annular space of the jet mill there is a spiral classification. Fine particles will pass through this classification zone and out through a cyclone at the bottom of the mill. The fraction captured in the exhaust filter of the mill was discarded.
For deaggregation of the powders (both for Pulmicort® Turbuhaler® formulation and the Form B salt), the powders were scrape filled into a simple inhaler device comprising an L-shaped cylindrical channel, comprising a vertical component and a horizontal component.
A Turbuhaler® mouthpiece was fastened to the end of the horizontal component to promote deaggregation of the powder, and the powder to be tested was placed via the vertical channel into the bend of the channel (i.e. the corner of the L-shaped channel). An airflow pulse (see below) then activated the airflow through the vertical component of the channel, entraining the powder located in the bend, and the air-particle mixture is thereafter moved through the horizontal component of the cylinder and finally passed through the Turbuhaler® mouthpiece.
After leaving the Turbuhaler® mouthpiece, the aerosol was transferred to a TSI Aerodynamic Particle Sizer (APS®) with Impactor Inlet 3306 set-up where the aerosol cloud was analysed for its aerodynamic properties and fine particle fraction. The APS set-up was arranged in such a way as to allow withdrawal of doses at optional airflows, followed by counting and aerodynamic classification (ca. 0.3-20 μm) of the particles on a particle by particle basis. Briefly, between the USP throat and the 3306 Impacter Inlet, a three-way pneumatic valve and an NGI pre-separator was positioned. In addition, a tube to a vacuum source via a timer-controlled solenoid valve (Triggor Box) was positioned between the valve and the pre-separator in a T-joint fashion. A short airflow pulse is then generated through the inhaler, USP throat, and pre-separator using the Triggor box. After the end of the air pulse, the pneumatic valve switches so that the aerosol cloud in the pre-separator is drawn into the APS via the 3306 Impacter Inlet for aerodynamic assessment.
Each dose was withdrawn with an airflow pulse of duration 0.4 seconds with maximum airflow at 60 lpm, followed by sampling into the APS instrument. The sampling time in the APS software was set to 20 seconds. The result parameters from the APS were mass median aerodynamic diameter (MMAD), geometric standard deviation (GSD), and a measure of the dose amount (particle counting data converted to mass data using particle density=1) called fine particle dose (FPD).
The two first doses (for each formulation) were released and measured gravimetrically. The mean value of these gravimetric doses, denoted “metered doses” or loaded dose, were used for normalisation of the (FPD), which gives a measure of the fine particle fraction (FPF). The FPF can therefore be used for direct comparison between the two powder formulations (for the instrument set up used). The limit for fine particles was set to an aerodynamic particle size of 7 μm. Seven and five doses were then analysed with the APS for Pulmicort® Turbuhaler® formulation and for Form B salt, respectively. […]

[3] = Estimated solubility of the salt in organic solvents; assay type: physicochemical; conditions: for solubility: organic solvent or mixture
Procedure: (b) The Form B salt described in (a) above was also prepared by dissolving, in a vial, 20% w of a sample of the benzoate salt prepared by the method of Example 1(b) (Form A) in a solvent such as methanol (>20 mg/ml), ethanol (>20 mg/ml), n-propanol (>20 mg/ml), isopropanol (8.5 mg/ml) or acetone (9.6 mg/ml). The figures in brackets indicate the estimated solubility of the salt in these solvents. The vial was then sealed and the suspension was homogenised at ambient temperature (20° C.) using a magnet. Stirring and temperature were maintained for a period of at least 7 days after which time a sample of the material obtained was dried and tested by XRPD. XRPD confirmed that there had been complete transformation of Form A to Form B.

human CCR1 = molecular target: T1, human CCR1 (Homo sapiens, UniProt P32246); assay: Human CCR1 binding assay ([125I] MIP-1α displacement, HEK-CCR1 membranes)
T1 construct: expressed in transfected cells; membranes
T1 sequence (P32246 1-355): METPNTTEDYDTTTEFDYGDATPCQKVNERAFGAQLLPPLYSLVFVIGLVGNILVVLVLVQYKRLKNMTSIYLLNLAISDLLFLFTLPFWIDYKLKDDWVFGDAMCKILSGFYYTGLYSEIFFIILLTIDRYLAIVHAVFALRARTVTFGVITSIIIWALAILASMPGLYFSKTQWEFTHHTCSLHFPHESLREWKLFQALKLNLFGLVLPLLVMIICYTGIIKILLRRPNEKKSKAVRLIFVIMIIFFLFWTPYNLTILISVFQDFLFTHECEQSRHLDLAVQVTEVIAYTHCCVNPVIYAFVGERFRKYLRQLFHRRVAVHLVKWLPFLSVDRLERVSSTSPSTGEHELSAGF
Procedure: HEK293 cells, from ECACC, stably expressing recombinant human CCR1 (HEK-CCR1) were used to prepare cell membranes containing CCR1. […] The concentration of membranes of each batch was adjusted to 10% specific binding of 33 pM [^125I] MIP-1α.
100 μL of HEK-CCR1 membranes diluted in assay buffer pH 7.4 (137 mM NaCl (Merck, Cat No 1.06404), 5.7 mM Glucose (Sigma, Cat No G5400), 2.7 mM KCl (Sigma, Cat No P-9333), 0.36 mM NaH2PO4×H2O (Merck, Cat No 1.06346), 10 mM HEPES (Sigma, Cat No H3375), 0.1% (w/v) Gelatine (Sigma, Cat No G2625)) with the addition of 17500 units/L Bacitracin (Sigma, Cat No B 1025) were added to each well of the 96 well filter plate (0.45 μm opaque Millipore cat no MHVB N4550). […] 12 μl assay buffer with 10% DMSO was added to certain wells (without compound) to detect maximal binding (B0).
12 μL [^125I] MIP-1α, diluted in assay buffer to a final concentration in the wells of 33 pM, was added to all wells. The plates with lid were then incubated for 1.5 hrs at room temperature. After incubation the wells were emptied by vacuum filtration (MultiScreen Resist Vacuum Manifold system, Millipore) and washed once with 200 μl assay buffer. After the wash, all wells received an addition of 50 μL of scintillation fluid (OptiPhase “Supermix”, Wallac Oy, Turko, Finland). Bound [^125I] MIP-1α was measured using a Wallac Trilux 1450 MicroBeta counter. […]

Compound: CC(=O)Nc1ccc(O)cc1OC[C@@](C)(O)CNC1CCN(Cc2ccc(Cl)cc2)CC1 [Form B salt, N-{2-[((2S)-3-{[1-(4-chlorobenzyl)piperidin-4-yl]amino}-2-hydroxy-2-methylpropyl)oxy]-4-hydroxyphenyl}acetamide benzoate]
- Water Uptake (% w/w) at 80% RH ([1]; listed as Anhydrous Form B): <0.8 % w/w
- Normalized FPF (mean FPF Form B salt/mean FPF Pulmicort Turbuhaler formulation) [2]: 164%^a
- FPF compared with Pulmicort Turbuhaler formulation ([2]; in words): generally higher
- de-aggregation properties (conclusion) ([2]; in words): advantageous de-aggregation properties
- FPD (fine particle dose) ([2]; mean of doses): 182 µg
- MMAD (mass median aerodynamic diameter) ([2]; mean of doses): 2.16 μm
- MMAD (mass median aerodynamic diameter) ([2]; single dose, airflow pulse 0.4 seconds, 60 lpm): 2.28 μm and 2.12 μm and 2.20 μm and 2.10 μm and 2.11 μm

Compound: CC(=O)Nc1ccc(O)cc1OC[C@@](C)(O)CNC1CCN(Cc2ccc(Cl)cc2)CC1 [Form A, N-{2-[((2S)-3-{[1-(4-chlorobenzyl)piperidin-4-yl]amino}-2-hydroxy-2-methylpropyl)oxy]-4-hydroxyphenyl}acetamide benzoate]
- estimated solubility ([3]; acetone): 9.6 mg/mL
- solubility ([3]; ethanol): > 20 mg/mL
- estimated solubility ([3]; isopropanol): 8.5 mg/mL
- solubility ([3]; methanol): > 20 mg/mL
- solubility ([3]; n-propanol): > 20 mg/mL
- Water Uptake (% w/w) at 80% RH ([1]; listed as Anhydrous Form A): <2 % w/w

Compound: CC(=O)Nc1ccc(O)cc1OC[C@@](C)(O)CNC1CCN(Cc2ccc(Cl)cc2)CC1 [N-{2-[((2S)-3-{[1-(4-chlorobenzyl)piperidin-4-yl]amino}-2-hydroxy-2-methylpropyl)oxy]-4-hydroxyphenyl}acetamide ditrifluoroacetate]
- IC50 (human CCR1): < 50 nM
